Laboratory results published in ChEMBL document CHEMBL1152874, “Synthesis of sulfonyl curcumin mimics exerting a vasodilatation effect on the basilar artery of rabbits” (Bioorg Med Chem Lett, 2009).

Columns and labels:
[1] = Vasodilation activity against depolarization-induced contraction in anaesthetized white rabbit basilar artery at 10 uM; assay type: functional, tissue-based; details: Oryctolagus cuniculus
[2] = Vasodilation activity against depolarization-induced contraction in anaesthetized white rabbit basilar artery; assay type: functional, tissue-based, Oryctolagus cuniculus

EC50 [2] | SMILES | Activity [1]
 | CCCC(=O)Nc1cccc(C(=O)/C=C/c2ccc(O)c(OC)c2)c1 | 32.3%
 | COc1cc(/C=C/C(=O)c2cccc(NC(=O)c3cccs3)c2)ccc1O | 27.1%
 | COc1cc(/C=C/C(=O)c2cccc(NS(=O)(=O)c3ccc(F)cc3)c2)ccc1O | 71.8%
 | COc1cc(/C=C/C(=O)c2cccc(NC(=O)c3ccco3)c2)ccc1O | 41.7%
2.78 µM | COc1cc(/C=C/C(=O)c2cccc(NS(=O)(=O)c3c(Cl)cccc3Cl)c2)ccc1O | 99.4%
 | COc1cc(/C=C/C(=O)c2cccc(NC(=O)c3ccc(Cl)cc3Cl)c2)ccc1O | 27.9%
5.58 µM | COc1cc(/C=C/C(=O)c2cccc(NS(=O)(=O)c3ccc(Cl)cc3)c2)ccc1O | 93.4%
 | COc1cc(/C=C/C(=O)c2cccc(NS(=O)(=O)c3ccc(OC(F)(F)F)cc3)c2)ccc1O | 76.7%
 | COc1cc(/C=C/C(=O)c2cccc(NC(C)=O)c2)ccc1O | 20.6%
 | COc1cc(/C=C/C(=O)c2cccc(NS(=O)(=O)c3cccs3)c2)ccc1O | 36.1%
 | COc1cc(/C=C/C(=O)c2cccc(NS(=O)(=O)c3ccc(C(F)(F)F)cc3)c2)ccc1O | 65.8%
 | COc1cc(/C=C/C(=O)c2cccc(NS(=O)(=O)c3cc(Cl)cc(Cl)c3)c2)ccc1O | 37.3%
 | COc1cc(/C=C/C(=O)c2cccc(NS(=O)(=O)c3ccc(Cl)cc3Cl)c2)ccc1O | 4.2%
 | COc1cc(/C=C/C(=O)c2cccc(N)c2)ccc1O | 8.3%
 | COc1cc(/C=C/C(=O)c2cccc(NS(=O)(=O)c3ccccc3)c2)ccc1O | 40.4%
 | COc1cc(/C=C/C(=O)c2cccc(NC(=O)C(C)C)c2)ccc1O | 22.5%
 | COc1cc(/C=C/C(=O)c2cccc(NS(C)(=O)=O)c2)ccc1O | 4.2%
 | CCCS(=O)(=O)Nc1cccc(C(=O)/C=C/c2ccc(O)c(OC)c2)c1 | 42.3%
 | COc1cc(/C=C/C(=O)c2cccc(NS(=O)(=O)C(C)C)c2)ccc1O | 8.4%
 | COc1ccc(S(=O)(=O)Nc2cccc(C(=O)/C=C/c3ccc(O)c(OC)c3)c2)cc1 | 26.4%
 | COc1cc(/C=C/C(=O)c2cccc(NS(=O)(=O)c3ccc(Cl)c(Cl)c3)c2)ccc1O | 30.2%
 | COc1cc(/C=C/C(=O)c2cccc(NS(=O)(=O)c3cccc(C(F)(F)F)c3)c2)ccc1O | 52.3%
7.48 µM | COc1cc(/C=C/C(=O)CC(=O)/C=C/c2ccc(O)c(OC)c2)ccc1O [CURCUMIN] | 58.4%
